Consider four compounds from BindingDB's records for doi:10.1021/jm401509e (Pfizer, 2014).

Test [1] is described as follows: Antagonist activity at CRTh2 in human peripheral blood assessed as inhibition of PGD2-induced eosinophil shape change at room temperature by flow cytometry. (A flow cytometer gives signals particle by particle.)
A short description of test [2]: Inhibition of CRTH2 receptor-mediated chemotaxis in human basophils.

In general, IC50 refers to the concentration that gives 50% inhibition. In the case of `Cc1c(-c2cn(CC(C)(C)C)c(=O)c3ccccc23)c2cc(F)ccc2n1CC(=O)O`, the IC50 in test [1] is 18 nM.

With `Cc1c(-c2cn(CCCC(F)(F)F)c(=O)c3ccccc23)c2cc(F)ccc2n1CC(=O)O`, the IC50 in test [1] stood at 3 nM.

In the case of `Cc1c(-c2cn(CC(F)(F)F)c(=O)c3ccccc23)c2cc(F)ccc2n1CC(=O)O`, in test [1], the IC50 stood at 19 nM.

Consider `Cc1c(-c2cn(C(C)C)c(=O)c3ccccc23)c2cc(F)ccc2n1CC(=O)O`, for which the IC50 came to 1.2 nM in test [2] and 8 nM in test [1].
